{"source": "patent US20050232896A1", "about": "“Cd137 as a proliferation factor for hematopoietic stem cells” (priority 2001, published 2005)", "key": {"[1]": {"tested_on": "cells in the peripheral blood", "test": "In vivo reconstitution after Alkeran, absolute cell numbers in peripheral blood", "set-up": "species or system NMRI mice", "settings": "after 21 days, average of three mice", "description": "(§1) In the next experiment NMRI mice were treated with Alkeran, a cytotoxic drug regularly used for human cancer therapy. Alkeran was given i.p. on days 1, 3 and 5. Mice received 100 μg of CD137-Fc immobilized on protein A or equivalent amounts of immobilized Fc control protein. Three mice were used per group. The relative composition of the bone marrow cells (Table 3) and the absolute number of cells in the peripheral blood (Table 4) were determined after 21 days."}, "[2]": {"tested_on": "Bone marrow cells", "test": "In vivo reconstitution after Alkeran, bone marrow composition", "set-up": "species or system NMRI mice", "settings": "Alkeran experiment, day 21, average of three mice", "description": "as §1"}, "[3]": {"tested_on": "megakaryocyte lineage, human CD34+ progenitors", "test": "CELISA lineage assay, megakaryocyte lineage (CD41a)", "type": "cell-based", "settings": "growth factors present", "description": "(§2) The effects of CD137 on the different hematopoietic lineages were evaluated using a cell based immunoassay, which quantifies expression of lineage-specific markers (CELISA, BioWhittaker, Walkersville, Md., USA).\n(§3) Progenitors for the myeloid and erythroid lineages were normal human CD34+ cells, which had been isolated from the bone marrow of healthy volunteers by positive selection using the “Direct CD34 Progenitor Kit” (Miltenyi, Bergisch Gladbach, Germany). Progenitors for the megakaryocyte lineage were normal human CD34+ cells, which had been isolated from the peripheral blood of healthy G-CSF-treated volunteers.\n(§4) 96-well polystyrene plates were precoated with four dilutions of CD137-Fc or Fc control protein at 4° C. overnight or with the dilution buffer PBS. The following additional controls were included in the experiment: no addition; Camptothecin, a cytotoxic compound, at 0.005 μM (condition 1) and at 0.5 μM (condition 2); stem Cell Factor (SCF) at a concentration of 125 ng/ml. […]"}, "[4]": {"tested_on": "myeloid lineage, human CD34+ progenitors", "test": "CELISA lineage assay, myeloid lineage (CD11b)", "type": "cell-based", "settings": "growth factors present", "description": "as §2, §3\n96-well polystyrene plates were precoated with four dilutions of CD137-Fc or Fc control protein at 4° C. overnight or with the dilution buffer PBS. […]\nIn this example, the influence of growth factor concentrations and potential additive or synergistic effects of these growth factors with CD137 were analysed in more detail. […]\nDifferentiation was assessed per CELISA (BioWhittaker), measuring the expression of the myeloid-specific protein CD11b. Proliferation was determined using the ViaLight system (BioWhittaker), which measures the amount of ATP in the culture. […]"}, "[5]": {"tested_on": "erythroid lineage, human CD34+ progenitors", "test": "CELISA lineage assay, erythroid lineage (glycophorin A)", "type": "cell-based", "settings": "growth factors present", "description": "as §2, §3, §4"}, "[6]": {"tested_on": "bone marrow cell population", "test": "In vivo reconstitution of the hematopoietic system, protein A damage, bone marrow composition", "set-up": "species or system NMRI mice", "settings": "day 21, average of three mice", "excerpt": "CD137 needs to be immobilized onto a carrier or crosslinked to be functional according to the invention. Protein A was chosen as a carrier for in vivo studies, as it has been effective in crosslinking CD137-Fc in the experiment described in Example 3. CD137-Fc or Fc control protein were immobilized on protein A and injected into NMRI mice. Besides immobilizing CD137-Fe or Fc, protein A has the additional effect of being toxic for cells of the hematopoietic system. This latter activity of protein A exerts a damaging effect on the hematopoietic system of mice as does chemotherapy.\nThree mice per group were used. Each mouse received 100 μg of immobilized CD137-Fc or an equimolar amount of immobilized Fc or protein A alone. Mice were killed after 3 weeks and the bone marrow was isolated from the femurs and analysed (Table 2)."}}, "data": [{"compound": "N[C@@H](Cc1ccc(N(CCCl)CCCl)cc1)C(=O)O", "note": "[Alkeran]", "values": [{"measurement": "Total number of leukocytes in the peripheral blood", "setting": "[1]", "value": 830, "unit": "per μl"}, {"measurement": "Total number of thrombocytes in the peripheral blood", "setting": "[1]", "value": 581.000, "unit": "per μl"}, {"measurement": "R1", "setting": "[2]", "value": "60.21 Percentage of total cells"}, {"measurement": "R3", "setting": "[2]", "value": "0.66 Percentage of total cells"}, {"measurement": "R4", "setting": "[2]", "value": "2.28 Percentage of total cells"}]}, {"compound": "CC[C@@]1(O)C(=O)OCc2c1cc1n(c2=O)Cc2cc3ccccc3nc2-1", "note": "[Camptothecin]", "values": [{"measurement": "growth inhibition, megakaryocyte lineage", "setting": "[3]; 0.005 uM", "value": "minimal growth inhibition"}, {"measurement": "growth inhibition, megakaryocyte lineage", "setting": "[3]; 0.05 uM", "value": "inhibited growth to a greater extent"}, {"measurement": "growth inhibition, myeloid lineage", "setting": "[4]; 0.005 uM", "value": "minimal growth inhibition"}, {"measurement": "growth inhibition, myeloid lineage", "setting": "[4]; 0.05 uM", "value": "inhibited growth to a greater extent"}, {"measurement": "growth inhibition, erythroid lineage", "setting": "[5]; 0.005 uM", "value": "minimal growth inhibition"}, {"measurement": "growth inhibition, erythroid lineage", "setting": "[5]; 0.05 uM", "value": "inhibited growth to a greater extent"}]}, {"compound": "Protein A: carrier for crosslinking CD137-Fc; toxic for cells of the hematopoietic system", "values": [{"measurement": "R1 (91% erythroid)", "setting": "[6]", "value": "69.18 Percentage of total cells"}, {"measurement": "R3 (49% undifferentiated blasts, 25% lymphoblasts, 18% basophil erythroblasts)", "setting": "[6]", "value": "1.81 Percentage of total cells"}, {"measurement": "R4 (50% undifferentiated blasts, 30% myeloid mainly und. precursors, 20% erythroid)", "setting": "[6]", "value": "1.97 Percentage of total cells"}, {"measurement": "R5 (91% granulocytes)", "setting": "[6]", "value": "1.12 Percentage of total cells"}, {"measurement": "R6 (74% monocytes, 20% myeloid precursors)", "setting": "[6]", "value": "0.63 Percentage of total cells"}, {"measurement": "R5 (91% granulocytes)", "setting": "[6]; listed as protein A", "value": "reduced drastically"}, {"measurement": "R6 (74% monocytes, 20% myeloid precursors)", "setting": "[6]; listed as protein A", "value": "reduced drastically"}]}]}
